According to ChEMBL document CHEMBL2010750, “Penicillin inhibitors of purple acid phosphatase” (Bioorg Med Chem Lett, 2012):
The source made the active and inactive calls. No cut-off for these calls is given here.

Tests used:
[1] = organism: Sus scrofa; experiment: Competitive inhibition of pig PAP using para-nitrophenol as substrate at pH 4.9 preincubated for 10 mins by UV-visible spectrophotometry
[2] = organism: Sus scrofa; experiment: Uncompetitive inhibition of pig PAP using para-nitrophenol as substrate at pH 4.9 preincubated for 10 mins by UV-visible spectrophotometry

Row | Structure (SMILES) | Kic [1] | Kiuc [2]
1 | CC1(C)S[C@@H]2[C@H](NC(=O)c3ccc(C(=O)c4cccc([N+](=O)[O-])c4)cc3)C(=O)N2[C@H]1C(=O)O | 23 µM | inactive
2 | CC1(C)S[C@@H]2[C@H](NC(=O)c3ccc(C(=O)c4ccc([N+](=O)[O-])cc4)cc3)C(=O)N2[C@H]1C(=O)O | 17 µM | inactive
3 | CC1(C)S[C@@H]2[C@H](NC(=O)Cc3ccccc3)C(=O)N2[C@H]1C(=O)O | inactive | inactive
4 | CC1(C)S[C@@H]2[C@H](NC(=O)c3ccc(C(=O)c4ccc(Cl)cc4)cc3)C(=O)N2[C@H]1C(=O)O | 12 µM | inactive
5 | Cc1ccc(C(=O)c2cccc(C(=O)N[C@@H]3C(=O)N4[C@@H]3SC(C)(C)[C@@H]4C(=O)O)c2)cc1 | 60 µM | inactive
6 | CC1(C)S[C@@H]2[C@H](NC(=O)c3ccc(C(=O)c4ccccc4)cc3)C(=O)N2[C@H]1C(=O)O | 26 µM | inactive
7 | CC1(C)S[C@@H]2[C@H](NC(=O)c3cccc(C(=O)N4CCCCC4)c3)C(=O)N2[C@H]1C(=O)O | 241 µM | 491 µM
8 | CC(=O)Oc1ccc(C(=O)N[C@@H]2C(=O)N3[C@@H]2SC(C)(C)[C@@H]3C(=O)O)cc1 | 53 µM | inactive
9 | CC1(C)S[C@@H]2[C@H](NC(=O)c3ccc(C(=O)c4ccccc4Cl)cc3)C(=O)N2[C@H]1C(=O)O | 32 µM | inactive
